# Assays:
# SERT = target: T1, SERT (Homo sapiens, UniProt P31645); assay: ASP+ accumulation in hSERT-transfected HEK cells by confocal fluorescence microscopy; format: cell-based; details: 2 mM ASP as printed in the FIG. 3 legend
# T1 construct: expressed in transfected cells
# Experimental: FIGS. 3A-3L. Monoamine transporters interact with ASP^+. Like HEK-hNET cells hDAT and hSERT transfected cells accumulate ASP^+. hNET (FIGS. 3A, 3B & 3C), hDAT (FIGS. 3D, 3E & 3F), hSERT (FIGS. 3G, 3H & 3I) and HEK-293 (FIGS. 3J, 3K & 3L) were exposed to 2 mM ASP for the times indicated in FIGS. 3J, 3K & 3L. The color gradient represented in FIG. 3J denotes the corresponding ASP^+ intensity values.
# HEK-hNET cells were plated on 35 mm glass bottom Petri-dishes (MatTek, Ashland, Mass.) coated with poly-L-lysine three days prior to experimentation. The culture medium was aspirated, cells were immediately mounted on a Zeiss 410 confocal microscope and the microscope was focused on the center of the monolayer of cells. During the confocal measurment cells remain without buffer for approximately thirty seconds. Background autoflourescence was established by collecting images for ten seconds prior to the addition of KRH (see Radiolabeled Transport),[…] Glucose, 10 μM ascorbic acid, 10 μM pargalyine, 10 μM tropolone (Sigma, Boulder CO), and ASP^+. […] The effects of photobleaching on ASP^+ accumulation were determined by examining the rate of ASP^+ fluorescence at various acquisition rates. […]
# The fluorescent images were processed using MetaMorph imaging software (Universal Imaging Corporation, Downington Pa.). […] All cells are subtracted against auto-fluorescence.
# NET [1] = target: T2, NET (Homo sapiens, UniProt P23975); assay: Fluorescence anisotropy of ASP+ in HEK-hNET cells; format: cell-based; design: expressed in transfected cells
# Experimental: To evaluate ASP^+ binding to the surface membranes, HEK-hNET cells were exposed to 2 μM ASP^+ with horizontal polarizer (FIG. 5C), with the polarizer rapidly switching to the vertical position. Cells were imaged with alternating polarizations for 3 minutes to measure light intensity in the horizontal (Ih) and vertical (Iv) positions in order to calculate the anisotropy ratio, r=(Iv−gIh)/(Iv+2 g Ih). The factor g was determined by using a half wave plate as described by Blackman et al. (1996). In this formulation, r =0.4 implies an immobile source (Smith et al., 1999). Surface anisotropy was measured from the cell circumference, taken as 1 pixel width. Cytosolic anisotropy was measured near the center of the cell, approximately 5 pixel widths from the membrane.
# Notice that rapid accumulation, which peaks at the cell edges (arrows), remains essentially constant between 3 and 180 sec., whereas brightness at the cell center (between arrows) gradually increases over this same period. Furthermore, accumulation at the center occurs at the same rate as phase II (compare phase II slope in FIG. 4 with center elevation in FIG. 5A). […] To test this interpretation the inventors measured the anisotropy of light from cell edges and cell centers.
# DAT = DAT (Homo sapiens, UniProt Q01959); assay: ASP+ uptake assay on FLEXstation, DAT-transfected HEK-293 cells; format: cell-based; design: expressed in transfected cells; details: FIG. 10B
# Experimental: Medium for the transfected lines was supplemented with G418 (250 μg/ml). Trypsin, glutamine, penicillin, streptomycin, G418, and phosphate-free DMEM were purchased from Life Technologies, Inc. or obtained from the Vanderbilt Media Core. For all transport assays, cells were plated on poly-D-lysine (0.1 mg/ml)-coated (0.1 mg/ml)-coated 96-well plates. HEK cells were plated at 12,500 cells per well in 96 well plates, HEK-DAT cells were plated at 15,000 cells per well, HEK-NET cells were plated at 20,000 per well, and HEK-SERT cells were plated at 20,000 per well in a volume of 200 uL. HEK, HEK-DAT, and HEK-SERT cells were grown for 48 hours and HEK-NET cells were grown for 72 hours to a confluency of ˜90%.
# ASP^+ was obtained from Molecular Probes, Inc. and dissolved in KRH buffer to indicated concentrations. Trypan Blue was obtained from Sigma as a 0.4% solution and diluted to a final concentration of 30 uM in KRH buffer.
# To limit the time delay between the addition of ASP^+ and the measurement of accumulation of ASP^+ during the kinetic assays, plates were divided in half and assayed one half at a time. At assay, the medium was removed from wells in the first 6 columns by aspiration, and the cells were incubated with Trypan Blue in KRH buffer for 20 minutes at 37° C.in room air. Then, medium was removed from the wells in the last 6 columns and replaced with Trypan Blue in KRH buffer.
# NET [2] = target: T2, NET; assay: ASP+ accumulation in HEK-hNET cells by confocal fluorescence microscopy (phase I binding, phase II transport)
# T2 sequence (P23975 whole entry): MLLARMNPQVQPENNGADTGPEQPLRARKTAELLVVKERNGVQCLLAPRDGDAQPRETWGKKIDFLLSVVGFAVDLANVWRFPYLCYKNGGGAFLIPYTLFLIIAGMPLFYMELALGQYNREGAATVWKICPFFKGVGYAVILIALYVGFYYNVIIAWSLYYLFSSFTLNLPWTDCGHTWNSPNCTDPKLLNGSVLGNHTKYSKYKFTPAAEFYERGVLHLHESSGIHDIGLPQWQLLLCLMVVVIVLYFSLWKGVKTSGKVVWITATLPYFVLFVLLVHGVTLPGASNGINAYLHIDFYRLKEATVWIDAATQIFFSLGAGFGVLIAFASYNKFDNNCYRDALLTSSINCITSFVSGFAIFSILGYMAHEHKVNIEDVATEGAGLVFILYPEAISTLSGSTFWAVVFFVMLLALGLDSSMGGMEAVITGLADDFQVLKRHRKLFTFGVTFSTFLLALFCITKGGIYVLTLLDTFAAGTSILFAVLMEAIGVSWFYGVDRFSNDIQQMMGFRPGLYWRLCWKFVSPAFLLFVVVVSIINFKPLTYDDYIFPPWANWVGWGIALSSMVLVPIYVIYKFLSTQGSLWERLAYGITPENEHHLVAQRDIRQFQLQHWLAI
# T1 sequence (P31645 whole entry): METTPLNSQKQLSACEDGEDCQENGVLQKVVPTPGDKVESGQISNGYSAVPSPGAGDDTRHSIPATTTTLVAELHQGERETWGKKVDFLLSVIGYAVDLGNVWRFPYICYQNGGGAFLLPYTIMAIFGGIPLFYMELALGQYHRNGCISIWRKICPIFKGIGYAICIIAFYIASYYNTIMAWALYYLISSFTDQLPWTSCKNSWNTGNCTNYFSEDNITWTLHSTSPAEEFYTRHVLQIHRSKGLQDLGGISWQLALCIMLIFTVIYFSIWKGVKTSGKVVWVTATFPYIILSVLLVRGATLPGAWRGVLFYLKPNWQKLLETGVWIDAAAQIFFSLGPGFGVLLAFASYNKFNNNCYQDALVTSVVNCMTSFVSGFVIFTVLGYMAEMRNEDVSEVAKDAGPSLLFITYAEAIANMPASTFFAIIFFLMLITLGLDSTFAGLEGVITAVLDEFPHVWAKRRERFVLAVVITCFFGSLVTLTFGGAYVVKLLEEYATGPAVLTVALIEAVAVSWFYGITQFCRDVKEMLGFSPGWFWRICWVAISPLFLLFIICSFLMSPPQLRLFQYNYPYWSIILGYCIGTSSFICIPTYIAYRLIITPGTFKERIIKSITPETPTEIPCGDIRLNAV
# Sequence of DAT (Q01959 whole entry): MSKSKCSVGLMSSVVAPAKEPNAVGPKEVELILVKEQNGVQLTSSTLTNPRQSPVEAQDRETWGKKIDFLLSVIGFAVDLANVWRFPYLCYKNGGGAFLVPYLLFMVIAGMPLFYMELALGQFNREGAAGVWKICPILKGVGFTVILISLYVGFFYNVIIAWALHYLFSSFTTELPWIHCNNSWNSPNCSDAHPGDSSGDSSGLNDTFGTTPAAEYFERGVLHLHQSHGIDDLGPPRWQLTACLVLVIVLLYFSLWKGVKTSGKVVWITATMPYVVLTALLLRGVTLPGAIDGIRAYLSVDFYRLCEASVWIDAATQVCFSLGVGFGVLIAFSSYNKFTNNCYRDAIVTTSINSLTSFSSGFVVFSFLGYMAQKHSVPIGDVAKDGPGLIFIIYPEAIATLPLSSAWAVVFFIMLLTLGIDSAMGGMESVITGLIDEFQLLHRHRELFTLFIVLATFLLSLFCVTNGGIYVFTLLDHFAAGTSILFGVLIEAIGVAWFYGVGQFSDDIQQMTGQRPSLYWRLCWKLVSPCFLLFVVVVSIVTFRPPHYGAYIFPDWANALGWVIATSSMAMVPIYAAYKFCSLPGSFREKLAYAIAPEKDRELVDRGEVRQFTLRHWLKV
smiles,measurement,setting,value
"CN(C)c1ccc(C=Cc2cc[n+](C)cc2)cc1 [ASP^+, 4-(4-dimethylaminostyrl)-N-methylpyridinium]",ASP+ accumulation by hSERT transfected cells,SERT,accumulate
same,"fluorescence anisotropy, solution ASP+",NET [1],0.15
same,"concentration-response of ASP+ accumulation, DAT",DAT,concentration-dependent accumulation
same,ASP+ accumulation by cells expressing NET,"NET [2]; 800 nM ASP+, images at 0, 3 and 180 seconds",accumulate
same,Phase I n,NET [2]; exponent n of the phase I fit,1.15±0.30
same,Phase II n,NET [2]; exponent n of the phase II fit,1.51±0.35
same,Phase I Vmax,NET [2]; phase I (ASP+ binding) slope as a function of ASP+ concentration,10.5±0.94 AFUs/sec
same,potency of ASP+ accumulation for hNET,NET [2]; summary statement,sub-μM potency
